Experimental data from BigSolDB 2.1.

COc1ccc2nc(SCc3ncc(C)c(OC)c3C)[nH]c2c1
solubility (mole fraction)
Conditions | in acetone | in ethanol | in ethyl acetate | in isopropanol | in methanol | in n-butanol | in n-propanol
280.35 K | 0.005 | 0.0144 | 0.0033 | 0.0032 | 0.0127 | 0.0103 | 0.0076
284.35 K | 0.0065 | 0.0189 | 0.004 | 0.0044 | 0.0178 | 0.0134 | 0.0101
288.15 K | 0.0083 | 0.0248 | 0.0049 | 0.0058 | 0.0239 | 0.0171 | 0.0134
292.25 K | 0.0108 | 0.0323 | 0.0058 | 0.0079 | 0.0322 | 0.0218 | 0.0178
296.65 K | 0.014 | 0.0412 | 0.0073 | 0.0108 | 0.0442 | 0.0292 | 0.0234
300.25 K | 0.0172 | 0.0511 | 0.0085 | 0.014 | 0.0559 | 0.0356 | 0.0296
303.15 K | 0.0203 | 0.0606 | 0.0098 | 0.0172 | 0.0668 | 0.0425 | 0.0359
307.65 K | 0.0263 | 0.0775 | 0.0122 | 0.0234 | 0.0887 | 0.0549 | 0.047
311.15 K | 0.0319 | 0.0946 | 0.0142 | 0.0286 | 0.11 | 0.0661 | 0.0567
315.15 K | 0.039 | 0.115 | 0.0165 | 0.037 | 0.138 | 0.0824 | 0.0713
319.65 K | 0.0496 | 0.141 | 0.0208 | 0.0482 | 0.172 | 0.104 | 0.0914
